Data published in PubChem BioAssay (NCI).
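Protocol summary: plate cells (96-well), add compound at 5 concentrations, incubate 48 h, interpolate endpoints linearly. TGI denotes the concentration required for complete inhibition of growth.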

Experiments:
Assay in all cases: DTP human tumour cell line panel, 48 h
DLD-1 colon = test system: DLD-1 colon
SR leukemia = test system: SR leukemia
HCC-2998 colon = test system: HCC-2998 colon
K-562 leukemia = test system: K-562 leukemia
SK-MEL-5 melanoma = test system: SK-MEL-5 melanoma
HOP-62 NSCLC = test system: HOP-62 NSCLC
U251 CNS = test system: U251 CNS
HS 578T breast = test system: HS 578T breast
NCI/ADR-RES ovarian = test system: NCI/ADR-RES ovarian
A498 renal = test system: A498 renal
SNB-78 CNS = test system: SNB-78 CNS

CC12CCC3=C(CSC4=C3CSc3ccccc34)C1=CCCC2=O (centres undefined)
TGI (DLD-1 colon): > 100 µM | TGI (SR leukemia): > 100 µM | TGI (HCC-2998 colon): > 100 µM | TGI (K-562 leukemia): > 100 µM | TGI (SK-MEL-5 melanoma): 53 µM | TGI (HOP-62 NSCLC): > 100 µM | TGI (U251 CNS): > 100 µM

COc1cc2[nH]c(=O)[nH]c2c2c(C)c[nH]c12
TGI (HS 578T breast): > 100 µM | TGI (NCI/ADR-RES ovarian): > 100 µM | TGI (SR leukemia): > 100 µM | TGI (HCC-2998 colon): > 100 µM | TGI (K-562 leukemia): > 100 µM | TGI (SK-MEL-5 melanoma): > 100 µM | TGI (HOP-62 NSCLC): > 100 µM | TGI (U251 CNS): > 100 µM | TGI (A498 renal): > 100 µM

c1ccc(C[P+]2(c3ccccc3)CCCCC2)cc1
TGI (SNB-78 CNS): > 100 µM | TGI (DLD-1 colon): > 100 µM | TGI (SR leukemia): > 100 µM | TGI (HCC-2998 colon): > 100 µM | TGI (K-562 leukemia): > 100 µM | TGI (SK-MEL-5 melanoma): 71.9 µM | TGI (HOP-62 NSCLC): > 100 µM | TGI (U251 CNS): > 100 µM | TGI (A498 renal): > 100 µM

CC1CCC(O)/C=C/C(=O)OC(C)C(O)/C=C/C(=O)O1 (centres undefined)
TGI (HS 578T breast): > 100 µM | TGI (NCI/ADR-RES ovarian): > 100 µM | TGI (SR leukemia): > 100 µM | TGI (HCC-2998 colon): > 100 µM | TGI (K-562 leukemia): > 100 µM | TGI (SK-MEL-5 melanoma): > 100 µM | TGI (HOP-62 NSCLC): > 100 µM | TGI (U251 CNS): > 100 µM | TGI (A498 renal): > 100 µM

CC(CCC(=O)O)(c1cc(Br)c(O)c(Br)c1)c1cc(Br)c(O)c(Br)c1
TGI (HS 578T breast): > 100 µM | TGI (NCI/ADR-RES ovarian): > 100 µM | TGI (SR leukemia): > 100 µM | TGI (HCC-2998 colon): 86.3 µM | TGI (K-562 leukemia): > 100 µM | TGI (SK-MEL-5 melanoma): 88.3 µM | TGI (HOP-62 NSCLC): > 100 µM | TGI (U251 CNS): > 100 µM | TGI (A498 renal): 87.7 µM

Cc1cc(S(=O)(=O)Nc2nc(N)n(-c3ccccc3)n2)c(S)cc1Cl
TGI (HS 578T breast): > 100 µM | TGI (NCI/ADR-RES ovarian): > 100 µM | TGI (SR leukemia): > 100 µM | TGI (HCC-2998 colon): > 100 µM | TGI (K-562 leukemia): > 100 µM | TGI (SK-MEL-5 melanoma): > 100 µM | TGI (HOP-62 NSCLC): > 100 µM | TGI (U251 CNS): > 100 µM | TGI (A498 renal): > 100 µM

O=C1CCCn2c3ccccc3c3ccnc1c32
TGI (SNB-78 CNS): > 100 µM | TGI (DLD-1 colon): > 100 µM | TGI (NCI/ADR-RES ovarian): > 100 µM | TGI (HCC-2998 colon): > 100 µM | TGI (K-562 leukemia): > 100 µM | TGI (SK-MEL-5 melanoma): > 100 µM | TGI (HOP-62 NSCLC): > 100 µM | TGI (U251 CNS): > 100 µM | TGI (A498 renal): 32.2 µM

CSCC[C@@H](NC(=O)[C@H](CC(C)C)NC(=O)C(Cc1cnc[nH]1)NC(=O)CNC(=O)[C@@H](NC(=O)[C@H](C)NC(=O)[C@H](Cc1cn(C=O)c2ccccc12)NC(=O)[C@H](CCC(N)=O)NC(=O)[C@@H](N)CC(N)=O)C(C)C)C(N)=O (some centres undefined)
TGI (SNB-78 CNS): > 100 µM | TGI (DLD-1 colon): > 100 µM | TGI (NCI/ADR-RES ovarian): > 100 µM | TGI (HCC-2998 colon): > 100 µM | TGI (K-562 leukemia): > 100 µM | TGI (SK-MEL-5 melanoma): > 100 µM | TGI (HOP-62 NSCLC): > 100 µM | TGI (U251 CNS): > 100 µM | TGI (A498 renal): > 100 µM

COC(=O)/C=C1\C(=O)N(C(C)=O)c2ccccc21
TGI (HS 578T breast): 25.8 µM | TGI (NCI/ADR-RES ovarian): 62.8 µM | TGI (SR leukemia): > 27.5 µM | TGI (HCC-2998 colon): 31.4 µM | TGI (K-562 leukemia): > 96.5 µM | TGI (SK-MEL-5 melanoma): 27.8 µM | TGI (HOP-62 NSCLC): 30.2 µM | TGI (U251 CNS): 37.2 µM | TGI (A498 renal): 20 µM

NCCCCN(CCCN)C(=O)OCc1ccccc1
TGI (HS 578T breast): > 100 µM | TGI (NCI/ADR-RES ovarian): > 100 µM | TGI (SR leukemia): > 100 µM | TGI (HCC-2998 colon): > 100 µM | TGI (K-562 leukemia): > 100 µM | TGI (SK-MEL-5 melanoma): > 100 µM | TGI (HOP-62 NSCLC): > 100 µM | TGI (U251 CNS): > 100 µM | TGI (A498 renal): > 100 µM

Cc1cc([C@H](C#N)c2nc3ccccc3s2)nc(Cl)n1
TGI (HS 578T breast): 33.3 µM | TGI (NCI/ADR-RES ovarian): 10.8 µM | TGI (SR leukemia): > 100 µM | TGI (HCC-2998 colon): 16.3 µM | TGI (K-562 leukemia): > 100 µM | TGI (SK-MEL-5 melanoma): 45.9 µM | TGI (HOP-62 NSCLC): > 100 µM | TGI (U251 CNS): 12.4 µM | TGI (A498 renal): 31.3 µM

CCOC(=O)n1c2ccccc2c2c(O)c(OC)c3c(c21)C(=O)NC3=O
TGI (HS 578T breast): > 100 µM | TGI (NCI/ADR-RES ovarian): 81.3 µM | TGI (SR leukemia): 87.9 µM | TGI (HCC-2998 colon): > 100 µM | TGI (K-562 leukemia): > 100 µM | TGI (SK-MEL-5 melanoma): > 100 µM | TGI (HOP-62 NSCLC): > 100 µM | TGI (U251 CNS): > 100 µM | TGI (A498 renal): > 100 µM

O=C(/C=C/c1ccccc1O)CC(=O)/C=C/c1ccccc1O
TGI (HS 578T breast): > 31.6 µM | TGI (NCI/ADR-RES ovarian): 14.5 µM | TGI (SR leukemia): > 25 µM | TGI (HCC-2998 colon): 15.8 µM | TGI (K-562 leukemia): > 31.6 µM | TGI (SK-MEL-5 melanoma): 14.6 µM | TGI (HOP-62 NSCLC): 19.4 µM | TGI (U251 CNS): 13 µM | TGI (A498 renal): 51.3 µM

CC1(C)OC2C(CO)OC(/N=C(\NC#N)Oc3ccccc3)C2O1 (centres undefined)
TGI (SNB-78 CNS): > 100 µM | TGI (DLD-1 colon): > 100 µM | TGI (SR leukemia): > 100 µM | TGI (HCC-2998 colon): > 100 µM | TGI (K-562 leukemia): > 100 µM | TGI (SK-MEL-5 melanoma): > 100 µM | TGI (HOP-62 NSCLC): > 100 µM | TGI (U251 CNS): > 100 µM

O=c1[nH]/c(=C/c2cccs2)c(=O)[nH]/c1=C/c1ccc(OCc2ccccc2)cn1
TGI (HS 578T breast): 0.204 µM | TGI (NCI/ADR-RES ovarian): 0.475 µM | TGI (SR leukemia): 0.587 µM | TGI (HCC-2998 colon): 0.853 µM | TGI (K-562 leukemia): 27.4 µM | TGI (SK-MEL-5 melanoma): > 62.6 µM | TGI (HOP-62 NSCLC): 8.47 µM | TGI (U251 CNS): 23.8 µM | TGI (A498 renal): 1.15 µM

CS(=O)(=O)c1ccc(C2=C(c3ccccc3)C(=O)OC2)cc1
TGI (HS 578T breast): > 100 µM | TGI (NCI/ADR-RES ovarian): > 100 µM | TGI (SR leukemia): > 100 µM | TGI (HCC-2998 colon): > 100 µM | TGI (K-562 leukemia): > 100 µM | TGI (SK-MEL-5 melanoma): > 100 µM | TGI (HOP-62 NSCLC): > 100 µM | TGI (U251 CNS): > 100 µM | TGI (A498 renal): > 100 µM

COc1ccc(/C=C/C=C2C(=O)NC(=S)NC2=O)cc1
TGI (HS 578T breast): > 56.6 µM | TGI (NCI/ADR-RES ovarian): 12.3 µM | TGI (SR leukemia): 4.63 µM | TGI (HCC-2998 colon): 21.3 µM | TGI (K-562 leukemia): > 31.9 µM | TGI (SK-MEL-5 melanoma): 26.1 µM | TGI (HOP-62 NSCLC): > 49.8 µM | TGI (U251 CNS): 5.1 µM | TGI (A498 renal): > 100 µM

CSc1nc(NC2CC2)c2c(n1)Sc1nc3ccccc3n1N=C2
TGI (HS 578T breast): 24.2 µM | TGI (NCI/ADR-RES ovarian): 69.7 µM | TGI (SR leukemia): > 100 µM | TGI (HCC-2998 colon): > 100 µM | TGI (K-562 leukemia): > 100 µM | TGI (SK-MEL-5 melanoma): 49.5 µM | TGI (HOP-62 NSCLC): 39.6 µM | TGI (U251 CNS): 61.8 µM | TGI (A498 renal): 60.8 µM
